% of control, % of inhibition and IC50 data for ten compounds are collected here from ChEMBL document CHEMBL5465560, “Selectivity Literature for EUbOPEN Chemogenomic Library” (2024).

Bounds are passed on as bounds.

Test [1] concerns the target Angiopoietin-1 receptor (Homo sapiens) (UniProt Q02763). Put plainly: Selectivity interaction (Ambit KINOMEscan and KiNATiv profiling in Jurkat cells) EUB0000090b TEK. The note with it: at 1 µM. The test is classed as cell-based.
The target in test [2] is Calcium/calmodulin-dependent protein kinase type II subunit beta (Homo sapiens) (UniProt Q13554). Put plainly: Selectivity interaction (KinomeScan (DiscoverX)) EUB0001049a CAMK2B. The note with it: at 1 µM.
Calcium/calmodulin-dependent protein kinase type II subunit beta (Homo sapiens), sequence (Q13554 whole entry): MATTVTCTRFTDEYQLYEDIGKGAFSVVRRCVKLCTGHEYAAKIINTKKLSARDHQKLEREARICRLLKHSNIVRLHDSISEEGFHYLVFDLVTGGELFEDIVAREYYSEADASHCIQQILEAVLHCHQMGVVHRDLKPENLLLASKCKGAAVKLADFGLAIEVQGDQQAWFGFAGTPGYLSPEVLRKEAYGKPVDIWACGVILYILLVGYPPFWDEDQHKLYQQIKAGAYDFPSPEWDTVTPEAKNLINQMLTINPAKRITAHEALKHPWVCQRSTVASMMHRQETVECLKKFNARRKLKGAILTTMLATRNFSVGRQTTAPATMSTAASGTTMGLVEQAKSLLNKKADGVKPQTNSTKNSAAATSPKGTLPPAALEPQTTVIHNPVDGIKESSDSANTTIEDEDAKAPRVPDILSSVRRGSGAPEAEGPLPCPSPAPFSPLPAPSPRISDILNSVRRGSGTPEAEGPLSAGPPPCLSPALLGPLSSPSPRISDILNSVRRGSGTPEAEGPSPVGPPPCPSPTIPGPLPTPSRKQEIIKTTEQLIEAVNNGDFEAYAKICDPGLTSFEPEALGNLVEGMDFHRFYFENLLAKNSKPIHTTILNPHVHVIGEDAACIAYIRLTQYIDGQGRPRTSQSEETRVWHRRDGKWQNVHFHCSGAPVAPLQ
Test [3] addresses Ribosomal protein S6 kinase alpha-4 (Homo sapiens) (UniProt O75676). Put plainly: Selectivity interaction (KinomeScan (DiscoverX)) EUB0000695a RPS6KA4. The note with it: at 100 nM.
In test [4] the target is T1, Receptor-interacting serine/threonine-protein kinase 1 (Homo sapiens) (UniProt Q13546).
T1 sequence (whole entry): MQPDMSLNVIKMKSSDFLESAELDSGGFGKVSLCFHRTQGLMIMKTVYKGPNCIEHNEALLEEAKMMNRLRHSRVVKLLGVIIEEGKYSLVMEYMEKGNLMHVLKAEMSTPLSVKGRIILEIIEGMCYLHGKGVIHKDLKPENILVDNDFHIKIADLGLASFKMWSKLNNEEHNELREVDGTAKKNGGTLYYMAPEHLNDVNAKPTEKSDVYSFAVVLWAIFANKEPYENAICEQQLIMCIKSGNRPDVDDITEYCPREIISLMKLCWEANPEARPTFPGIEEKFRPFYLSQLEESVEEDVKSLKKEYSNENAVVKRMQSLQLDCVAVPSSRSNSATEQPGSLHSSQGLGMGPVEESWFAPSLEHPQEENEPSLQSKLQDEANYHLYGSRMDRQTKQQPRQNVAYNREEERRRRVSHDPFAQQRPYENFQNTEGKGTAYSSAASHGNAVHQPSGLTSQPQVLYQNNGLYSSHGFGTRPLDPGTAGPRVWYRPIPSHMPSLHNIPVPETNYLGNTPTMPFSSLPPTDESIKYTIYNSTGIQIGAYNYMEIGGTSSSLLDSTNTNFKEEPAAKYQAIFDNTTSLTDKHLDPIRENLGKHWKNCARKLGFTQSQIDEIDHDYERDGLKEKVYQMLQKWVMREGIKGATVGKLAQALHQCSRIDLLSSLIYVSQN
Put plainly: Selectivity interaction (KinomeScan (DiscoverX)) EUB0000695a RIPK1. The settings on record: at 100 nM.

In test [5] the target is Vascular endothelial growth factor receptor 1 (Homo sapiens) (UniProt P17948). Put plainly: Selectivity interaction (KinomeScan (DiscoverX)) EUB0000045b FLT1.
Vascular endothelial growth factor receptor 1 (Homo sapiens), sequence (P17948 whole entry): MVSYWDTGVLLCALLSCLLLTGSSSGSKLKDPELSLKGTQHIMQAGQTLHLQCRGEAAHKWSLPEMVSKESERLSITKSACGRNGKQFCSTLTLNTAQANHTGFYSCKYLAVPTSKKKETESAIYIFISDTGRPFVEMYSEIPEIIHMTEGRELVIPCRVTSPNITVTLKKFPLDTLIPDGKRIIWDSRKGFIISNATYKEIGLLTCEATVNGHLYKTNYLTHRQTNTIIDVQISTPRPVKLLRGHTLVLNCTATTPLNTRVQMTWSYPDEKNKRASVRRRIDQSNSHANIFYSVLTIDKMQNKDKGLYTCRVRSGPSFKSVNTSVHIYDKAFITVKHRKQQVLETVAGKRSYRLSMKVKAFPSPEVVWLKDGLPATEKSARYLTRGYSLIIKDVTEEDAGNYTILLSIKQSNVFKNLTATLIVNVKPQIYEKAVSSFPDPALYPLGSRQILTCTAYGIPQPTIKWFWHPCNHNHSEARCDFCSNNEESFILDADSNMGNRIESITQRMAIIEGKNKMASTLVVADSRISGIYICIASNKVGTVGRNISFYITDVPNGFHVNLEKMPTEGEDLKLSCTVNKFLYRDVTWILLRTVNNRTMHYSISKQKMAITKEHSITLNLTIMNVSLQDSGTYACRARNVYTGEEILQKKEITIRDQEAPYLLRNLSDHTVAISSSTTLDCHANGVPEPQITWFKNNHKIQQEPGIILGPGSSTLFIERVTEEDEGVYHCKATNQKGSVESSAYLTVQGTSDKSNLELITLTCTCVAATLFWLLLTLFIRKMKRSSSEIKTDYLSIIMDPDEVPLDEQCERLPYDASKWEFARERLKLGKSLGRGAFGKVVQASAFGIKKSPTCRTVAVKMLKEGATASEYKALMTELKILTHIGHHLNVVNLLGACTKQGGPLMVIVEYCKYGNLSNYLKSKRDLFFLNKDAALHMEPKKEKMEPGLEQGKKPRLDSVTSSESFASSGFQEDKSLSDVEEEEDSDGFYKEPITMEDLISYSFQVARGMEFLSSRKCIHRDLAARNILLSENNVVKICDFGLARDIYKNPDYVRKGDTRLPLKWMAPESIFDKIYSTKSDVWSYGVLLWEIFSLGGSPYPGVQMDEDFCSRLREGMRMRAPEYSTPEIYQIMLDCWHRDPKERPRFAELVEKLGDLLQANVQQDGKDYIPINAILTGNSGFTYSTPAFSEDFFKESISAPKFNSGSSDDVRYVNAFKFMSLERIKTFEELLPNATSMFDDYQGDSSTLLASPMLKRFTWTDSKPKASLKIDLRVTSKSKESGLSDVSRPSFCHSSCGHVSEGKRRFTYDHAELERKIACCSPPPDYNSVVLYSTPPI
The target of test [6] is MAP kinase-interacting serine/threonine-protein kinase 2 (Homo sapiens, UniProt Q9HBH9). Put plainly: Selectivity interaction (KinomeScan (DiscoverX)) EUB0000666a MKNK2. The settings on record: at 10 µM.
MAP kinase-interacting serine/threonine-protein kinase 2, sequence (Q9HBH9 whole entry, looked up): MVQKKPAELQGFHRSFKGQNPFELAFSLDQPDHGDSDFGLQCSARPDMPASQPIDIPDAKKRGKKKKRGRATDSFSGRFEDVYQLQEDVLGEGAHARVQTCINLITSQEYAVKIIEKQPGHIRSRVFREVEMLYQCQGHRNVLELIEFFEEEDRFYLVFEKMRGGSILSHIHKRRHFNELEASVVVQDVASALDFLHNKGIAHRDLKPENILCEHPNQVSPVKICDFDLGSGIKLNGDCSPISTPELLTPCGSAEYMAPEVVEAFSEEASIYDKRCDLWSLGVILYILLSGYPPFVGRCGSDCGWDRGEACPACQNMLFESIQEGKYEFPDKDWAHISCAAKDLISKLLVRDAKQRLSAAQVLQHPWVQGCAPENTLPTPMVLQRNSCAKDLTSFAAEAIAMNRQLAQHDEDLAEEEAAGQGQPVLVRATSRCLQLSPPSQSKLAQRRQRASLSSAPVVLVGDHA
The target of test [7] is Serine/threonine-protein kinase Nek4 (Homo sapiens) (UniProt P51957). Put plainly: Selectivity interaction (Kinase panel (Z-LYTE Assay)) EUB0001632a NEK4. The note with it: at 10 µM.
Serine/threonine-protein kinase Nek4 (Homo sapiens), sequence (P51957 whole entry, looked up, the tested form may be a part): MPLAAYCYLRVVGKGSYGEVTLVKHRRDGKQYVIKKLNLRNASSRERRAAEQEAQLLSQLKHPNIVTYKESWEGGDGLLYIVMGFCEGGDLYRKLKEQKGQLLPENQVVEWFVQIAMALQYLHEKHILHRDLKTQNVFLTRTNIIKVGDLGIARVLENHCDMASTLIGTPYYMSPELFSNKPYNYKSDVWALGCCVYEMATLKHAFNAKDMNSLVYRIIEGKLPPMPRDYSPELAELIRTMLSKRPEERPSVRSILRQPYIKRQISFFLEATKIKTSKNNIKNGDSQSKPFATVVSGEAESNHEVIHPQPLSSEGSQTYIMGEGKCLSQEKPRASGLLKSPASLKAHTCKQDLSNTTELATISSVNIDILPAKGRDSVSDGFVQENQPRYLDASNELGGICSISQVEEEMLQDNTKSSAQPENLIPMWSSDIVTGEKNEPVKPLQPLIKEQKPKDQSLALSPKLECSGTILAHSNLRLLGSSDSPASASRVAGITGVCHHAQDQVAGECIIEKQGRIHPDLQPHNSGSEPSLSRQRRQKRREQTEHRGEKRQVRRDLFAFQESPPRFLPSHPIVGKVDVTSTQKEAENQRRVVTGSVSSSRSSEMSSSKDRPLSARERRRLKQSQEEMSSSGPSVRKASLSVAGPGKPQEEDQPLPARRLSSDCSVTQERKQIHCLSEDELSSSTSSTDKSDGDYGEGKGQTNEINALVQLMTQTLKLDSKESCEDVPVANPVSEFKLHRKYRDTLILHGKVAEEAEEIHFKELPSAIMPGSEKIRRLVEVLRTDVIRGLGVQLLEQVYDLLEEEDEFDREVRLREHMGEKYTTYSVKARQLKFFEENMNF
Test [8] concerns the target T2, Ankyrin repeat and protein kinase domain-containing protein 1 (Homo sapiens) (UniProt Q8NFD2).
T2 sequence (whole entry): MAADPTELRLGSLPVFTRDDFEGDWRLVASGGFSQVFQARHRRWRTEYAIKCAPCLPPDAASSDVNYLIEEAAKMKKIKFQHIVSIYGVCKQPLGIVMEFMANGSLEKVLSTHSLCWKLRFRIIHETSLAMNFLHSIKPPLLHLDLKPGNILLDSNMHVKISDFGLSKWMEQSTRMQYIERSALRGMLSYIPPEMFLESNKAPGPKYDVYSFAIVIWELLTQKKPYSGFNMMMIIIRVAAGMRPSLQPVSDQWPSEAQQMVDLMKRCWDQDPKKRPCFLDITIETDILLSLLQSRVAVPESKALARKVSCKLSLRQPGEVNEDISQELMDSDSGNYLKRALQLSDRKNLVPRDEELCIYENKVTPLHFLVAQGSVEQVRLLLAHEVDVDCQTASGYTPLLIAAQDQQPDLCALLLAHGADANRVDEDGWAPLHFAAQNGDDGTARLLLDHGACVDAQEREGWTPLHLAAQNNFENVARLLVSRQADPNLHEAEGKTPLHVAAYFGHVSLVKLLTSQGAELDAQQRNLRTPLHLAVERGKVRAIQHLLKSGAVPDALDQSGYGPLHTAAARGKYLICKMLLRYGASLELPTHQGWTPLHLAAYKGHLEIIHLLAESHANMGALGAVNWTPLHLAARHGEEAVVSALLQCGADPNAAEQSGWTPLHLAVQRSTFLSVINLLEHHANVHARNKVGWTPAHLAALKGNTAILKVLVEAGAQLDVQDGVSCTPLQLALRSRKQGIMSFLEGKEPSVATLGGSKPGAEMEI
Put plainly: Selectivity interaction (LanthaScreen Eu Kinase Binding Assay) EUB0001632a ANKK1. The note with it: at 10 µM. For orientation: TR-FRET usually uses a lanthanide donor and a delayed reading to cut background.

The target of test [9] is Bone morphogenetic protein receptor type-1B (Homo sapiens, UniProt O00238). Put plainly: Selectivity interaction (KinomeScan (DiscoverX)) EUB0000607a BMPR1B. The note with it: at 10 µM.
Bone morphogenetic protein receptor type-1B, sequence (O00238 whole entry): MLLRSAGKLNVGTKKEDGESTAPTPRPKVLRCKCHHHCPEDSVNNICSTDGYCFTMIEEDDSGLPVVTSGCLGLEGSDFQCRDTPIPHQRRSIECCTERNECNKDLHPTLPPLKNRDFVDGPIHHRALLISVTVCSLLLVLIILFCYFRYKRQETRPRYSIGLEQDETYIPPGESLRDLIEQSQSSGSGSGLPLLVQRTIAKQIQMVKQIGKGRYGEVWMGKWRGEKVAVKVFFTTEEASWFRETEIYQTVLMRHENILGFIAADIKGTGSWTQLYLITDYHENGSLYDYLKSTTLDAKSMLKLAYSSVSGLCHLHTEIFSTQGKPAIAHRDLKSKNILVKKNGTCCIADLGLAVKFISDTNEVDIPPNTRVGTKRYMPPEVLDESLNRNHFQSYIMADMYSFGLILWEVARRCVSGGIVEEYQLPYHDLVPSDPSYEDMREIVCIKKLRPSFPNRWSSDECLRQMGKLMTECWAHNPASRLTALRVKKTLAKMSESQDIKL
Test [10] deals with T3, Dual specificity mitogen-activated protein kinase kinase 6 (Homo sapiens) (UniProt P52564).
T3 sequence (whole entry): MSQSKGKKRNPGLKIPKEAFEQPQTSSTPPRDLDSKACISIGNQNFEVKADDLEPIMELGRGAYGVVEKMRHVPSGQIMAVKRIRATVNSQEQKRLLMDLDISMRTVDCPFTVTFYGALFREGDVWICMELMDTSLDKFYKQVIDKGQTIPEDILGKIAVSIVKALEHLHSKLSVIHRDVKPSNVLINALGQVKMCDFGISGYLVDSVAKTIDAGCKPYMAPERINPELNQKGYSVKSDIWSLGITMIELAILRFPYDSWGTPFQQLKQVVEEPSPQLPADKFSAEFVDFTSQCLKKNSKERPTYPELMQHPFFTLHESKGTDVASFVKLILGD
Put plainly: Selectivity interaction (Kinase panel (Invitrogen)) EUB0000639a MAP2K6. The note with it: at 200 nM.

Test [11] concerns the target T4, Dual specificity mitogen-activated protein kinase kinase 3 (Homo sapiens) (UniProt P46734).
T4 sequence (whole entry): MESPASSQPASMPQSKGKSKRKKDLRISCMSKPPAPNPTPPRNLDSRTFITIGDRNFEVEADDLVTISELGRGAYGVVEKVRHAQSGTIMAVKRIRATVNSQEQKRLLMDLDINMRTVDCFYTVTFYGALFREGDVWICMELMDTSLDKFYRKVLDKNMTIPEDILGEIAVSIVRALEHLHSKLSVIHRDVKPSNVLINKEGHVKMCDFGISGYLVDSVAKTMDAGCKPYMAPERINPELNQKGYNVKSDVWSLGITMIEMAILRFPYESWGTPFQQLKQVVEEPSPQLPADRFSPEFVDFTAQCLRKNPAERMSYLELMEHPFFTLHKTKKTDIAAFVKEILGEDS
Put plainly: Selectivity interaction (ActivX KiNativ screen (kinase selectivity in THP-1 cell lysates)) EUB0000639a MAP2K3. The settings on record: lysate, at 0.2 µM. Type of test: subcellular.

The target in test [12] is Serine/threonine-protein kinase pim-2 (Homo sapiens, UniProt Q9P1W9).
Test [13] has as its target Receptor tyrosine-protein kinase erbB-3 (Homo sapiens) (UniProt P21860). Put plainly: Selectivity interaction (KinomeScan (DiscoverX)) EUB0000595a ERBB3. The settings on record: at 10 µM.

Angiopoietin-1 receptor (Homo sapiens), sequence (Q02763 whole entry): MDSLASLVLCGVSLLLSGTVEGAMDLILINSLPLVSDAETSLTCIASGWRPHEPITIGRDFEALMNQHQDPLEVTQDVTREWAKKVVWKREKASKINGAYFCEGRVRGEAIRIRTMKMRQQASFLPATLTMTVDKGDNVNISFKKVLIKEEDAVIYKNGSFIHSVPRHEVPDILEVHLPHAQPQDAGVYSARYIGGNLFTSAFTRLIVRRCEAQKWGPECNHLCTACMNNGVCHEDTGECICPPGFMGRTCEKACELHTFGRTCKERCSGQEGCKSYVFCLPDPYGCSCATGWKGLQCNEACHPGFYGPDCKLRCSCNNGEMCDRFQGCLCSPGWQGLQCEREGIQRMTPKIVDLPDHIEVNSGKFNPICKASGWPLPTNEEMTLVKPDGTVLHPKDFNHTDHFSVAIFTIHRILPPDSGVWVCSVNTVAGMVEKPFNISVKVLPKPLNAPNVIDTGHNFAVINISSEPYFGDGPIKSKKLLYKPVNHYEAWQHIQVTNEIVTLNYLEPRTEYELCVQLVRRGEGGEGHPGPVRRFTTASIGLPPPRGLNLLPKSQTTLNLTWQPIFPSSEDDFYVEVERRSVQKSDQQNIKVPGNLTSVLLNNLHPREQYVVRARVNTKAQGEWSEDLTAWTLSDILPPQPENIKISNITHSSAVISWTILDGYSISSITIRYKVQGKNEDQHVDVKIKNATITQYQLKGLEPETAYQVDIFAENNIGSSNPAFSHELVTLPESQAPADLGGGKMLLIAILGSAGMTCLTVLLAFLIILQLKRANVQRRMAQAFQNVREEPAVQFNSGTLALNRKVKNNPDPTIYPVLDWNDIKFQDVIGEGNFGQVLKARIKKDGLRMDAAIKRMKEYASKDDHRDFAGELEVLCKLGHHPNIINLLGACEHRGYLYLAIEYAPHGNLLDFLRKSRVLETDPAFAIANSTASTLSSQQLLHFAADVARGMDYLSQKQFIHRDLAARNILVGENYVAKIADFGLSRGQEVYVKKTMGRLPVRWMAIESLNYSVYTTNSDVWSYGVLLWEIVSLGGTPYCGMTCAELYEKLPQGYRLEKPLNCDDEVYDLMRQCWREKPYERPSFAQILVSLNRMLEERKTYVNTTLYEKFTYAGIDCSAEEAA

`CN(C)C/C=C/C(=O)Nc1ccc(C(=O)N2CCCC(Nc3ncc(Cl)c(-c4c[nH]c5ccccc45)n3)C2)cc1` (centres undefined) came in with a % of control in test [1] of 92%.

For the compound `COc1cc(Nc2nc(C)cc(-c3cnn4nc(OC)ccc34)n2)cc(C(F)(F)F)c1`, the % of control in test [2] came to 93%.

Consider `Cc1cc(F)c(C(=O)Nc2cccc(-c3nncn3C(C)C)n2)cc1-n1cnc(C2CC2)c1`, for which the figures for the % of control in [3] and in test [4] were 100% and 89%, respectively.

For the compound `C=CC(=O)Nc1cc(-n2c(=O)ccc3cnc4ccc(-c5ccc(NS(C)(=O)=O)cc5)cc4c32)ccc1C`, the % of control in test [5] (at 1 µM) and in test [5] (at 10 µM) was 100% each time.

As to `O=C(NOC[C@H](O)CO)c1ccc(F)c(F)c1Nc1ccc(I)cc1F`, the % of control in test [6] worked out at 100%.

Turning to `Cn1cc(-n2cnc3c(NCc4nc5cc(Cl)c(Cl)cc5[nH]4)nc(N4CCOCC4)nc32)cn1`, the % of control in [7] came to 0.309%. Further, the % of inhibition in test [8] was -44.9%.

The compound `CNC(=O)Nc1ccc(-c2nc(N3CC4CCC(C3)O4)c3cnn(C4CCC5(CC4)OCCO5)c3n2)cc1` had a % of control in test [9] of 93%.

As for `CC[C@@H]1[C@H](F)C(=O)N[C@@H]1COc1nccc2cc(C(N)=O)c(OC)cc12` [ZIMLOVISERTIB], the % of inhibition in test [10] is 14.8%; in [11], -70.7%.

For orientation: IC50 means the concentration that gives 50% inhibition. Read a low IC50 as higher potency. Regarding `CCc1cccc(CC)c1NC(=O)c1nn(C)c2c1CCc1cnc(Nc3ccc(C(=O)NC4CCN(C)CC4)cc3OC(F)(F)F)nc1-2`, the IC50 in test [12] is > 10 µM.

In turn, `COCC(=O)NC/C=C/c1ccc2ncnc(Nc3ccc(Oc4ccc(C)nc4)c(C)c3)c2c1` [CP-724714] registered a % of control in test [13] of 20%.
